Common to all, as to type: biochemical
In assay [1] the target is T1, Recombinant human aldo-keto reductase family 1 member C2 (AKR1C2) protein (Homo sapiens, UniProt P52895).
T1 construct: made in house; host or cells: Sf-9 insect cells (baculovirus)
T1 sequence (P52895 1-323): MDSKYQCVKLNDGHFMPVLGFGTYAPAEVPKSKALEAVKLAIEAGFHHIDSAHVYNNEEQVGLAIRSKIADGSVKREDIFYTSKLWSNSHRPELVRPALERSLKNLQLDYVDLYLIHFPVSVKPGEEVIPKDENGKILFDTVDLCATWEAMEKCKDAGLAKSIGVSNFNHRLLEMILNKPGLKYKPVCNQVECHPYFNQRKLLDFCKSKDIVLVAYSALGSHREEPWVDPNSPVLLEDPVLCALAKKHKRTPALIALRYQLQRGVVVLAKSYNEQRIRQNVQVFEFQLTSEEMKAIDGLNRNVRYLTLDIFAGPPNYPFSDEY
Nature of the assay: Inhibition of the aldo-keto reductase family 1 member C2, 3H-dihydrotestosterone conversion. The conditions noted are these: inhibitor at 10 μM. The gist of the method: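 Single-point screen at 10 μM inhibitor, 1% DMSO: [3H]DHT (6.25 nM) reduction to 3α-diol by baculovirus-made AKR1C2 (13.6 nM), pH 7.4 phosphate buffer, 1 mM NADPH, 37 °C for 45 min. Radio-UPLC quantified product versus substrate to give percent inhibition.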

The target in assay [2] is T2, 17β-Hydroxysteroid Dehydrogenase Type 2 Enzyme (17β-HSD2) (Homo sapiens, UniProt P37059).
T2 construct: made in house; host or cells: Sf-9 insect cells (baculovirus)
T2 sequence (P37059 1-387): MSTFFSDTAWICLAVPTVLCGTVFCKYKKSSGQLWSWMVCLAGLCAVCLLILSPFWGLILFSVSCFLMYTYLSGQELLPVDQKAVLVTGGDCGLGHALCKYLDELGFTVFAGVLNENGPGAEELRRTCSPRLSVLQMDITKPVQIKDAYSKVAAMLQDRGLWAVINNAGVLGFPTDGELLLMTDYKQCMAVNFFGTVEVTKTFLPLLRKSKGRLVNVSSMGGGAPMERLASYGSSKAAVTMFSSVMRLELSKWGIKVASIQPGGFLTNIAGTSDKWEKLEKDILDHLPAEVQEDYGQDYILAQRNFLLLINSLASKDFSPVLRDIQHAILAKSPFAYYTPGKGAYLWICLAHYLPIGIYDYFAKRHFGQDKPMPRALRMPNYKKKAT
Nature of the assay: Inhibition of the 17β-hydroxysteroid dehydrogenase type 2 enzyme, 3H-testosterone conversion. As to conditions: inhibitor at 10 μM. The gist of the method: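 Single-point screen at 10 μM inhibitor, 1% DMSO: Sf-9-expressed human enzyme (105 nM), NAD 1 mM, ³H-labelled testosterone 56.25 nM, pH 8.5 phosphate/EDTA buffer, 30 min, room temperature. After TCA quench, substrate and product radioactivity quantified by UPLC with scintillation detection; inhibition percent from conversion.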

The target in assay [3] is T3, Recombinant human AKR1C3 (17β-HSD5) protein (Homo sapiens, UniProt P42330).
T3 construct: made in house; host or cells: E. coli
T3 sequence (P42330 1-323): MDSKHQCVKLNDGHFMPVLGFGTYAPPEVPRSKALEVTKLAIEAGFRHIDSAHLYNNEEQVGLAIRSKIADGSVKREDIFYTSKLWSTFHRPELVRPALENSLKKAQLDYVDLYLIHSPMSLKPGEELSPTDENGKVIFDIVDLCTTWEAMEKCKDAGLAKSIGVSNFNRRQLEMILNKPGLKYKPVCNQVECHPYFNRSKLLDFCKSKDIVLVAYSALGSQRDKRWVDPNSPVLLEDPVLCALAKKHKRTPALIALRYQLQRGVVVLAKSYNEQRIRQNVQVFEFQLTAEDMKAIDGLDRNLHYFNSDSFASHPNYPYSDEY
Nature of the assay: Inhibition of AKR1C3 (17β-hydroxysteroid dehydrogenase type 5) enzyme, fluorescence assay. As to conditions: inhibitor at 500 nM. An outline of the steps: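 Percent inhibition at 500 nM compound, derived from substrate conversion; product alcohol measured by fluorescence (ex 420, em 510 nm) against a 1 μM–10 nM standard curve. Reaction: 27 nM recombinant AKR1C3, 1 μM ketone substrate, 1 mM NADPH, phosphate/EDTA buffer pH 7.4, 1% DMSO, RT for 60–120 min.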

Consider `N#CC(=C1CCN(C(=O)N2CCn3cncc3C2)CC1)c1cccc2[nH]ncc12` [Compound 61, 2-(1H-indazol-4-yl)-2-(1-(5,6,7,8-tetrahydroimidazo[1,5-a]pyrazine-7-carbonyl)piperidin-4-ylidene)acetonitrile], for which the inhibition at 10 µM in assay [1] is 7%; in assay [2], 30%. Also, the inhibition at 0.5 µM in assay [3] came out at 99%.
For `N#CC(=C1CCN(C(=O)N2CCC(O)CC2)CC1)c1ccc(Cl)cn1` [Compound 62, 2-(5-chloropyridin-2-yl)-2-(1-(4-hydroxypiperidine-1-carbonyl)piperidin-4-ylidene)acetonitrile], in that order: -4%, 4% and 90%.
For `N#CC(=C1CCN(C(=O)N2CCC(CO)CC2)CC1)c1ccc(Cl)s1` [Compound 63, 2-(5-chlorothiophen-2-yl)-2-(1-(4-(hydroxymethyl)piperidine-1-carbonyl)piperidin-4-ylidene)acetonitrile], the inhibition at 10 µM in assay [1] was found to be 29%; in assay [2], 22%. In addition, the inhibition at 0.5 µM in assay [3] is 99%.
For `N#CC(=C1CCN(C(=O)N2CCc3sccc3C2)CC1)c1ccc(Cl)s1` [Compound 64, 2-(5-chlorothiophen-2-yl)-2-(1-(4,5,6,7-tetrahydrothieno[3,2-c]pyridine-5-carbonyl)piperidin-4-ylidene)acetonitrile], in that order: 19%, 28% and 99%.
For `N#CC(=C1CCN(C(=O)N2CCC(CO)CC2)CC1)c1ccc(Cl)cn1` [Compound 65, 2-(5-chloropyridin-2-yl)-2-(1-(4-(hydroxymethyl)piperidine-1-carbonyl)piperidin-4-ylidene)acetonitrile], in that order: 2%, 2% and 97%.
For `N#CC(=C1CCN(C(=O)N2CCc3sccc3C2)CC1)c1ccc(Cl)cn1` [Compound 66, 2-(5-chloropyridin-2-yl)-2-(1-(4,5,6,7-tetrahydrothieno[3,2-c]pyridine-5-carbonyl)piperidin-4-ylidene)acetonitrile], in that order: 8%, 12% and 96%.
On to `N#CC(=C1CCN(C(=O)N2CCc3[nH]ncc3C2)CC1)c1ccc(Cl)cn1` [Compound 67, 2-(5-chloropyridin-2-yl)-2-(1-(4,5,6,7-tetrahydro-1H-pyrazolo[4,3-c]pyridine-5-carbonyl)piperidin-4-ylidene)acetonitrile], for which the inhibition at 10 µM came out at 6% in assay [1] and 9% in assay [2]. For the same compound, the inhibition at 0.5 µM in assay [3] is 98%.
For `N#CC(=C1CCN(C(=O)N2CCn3cncc3C2)CC1)c1ccc(Cl)cn1` [Compound 68, 2-(5-chloropyridin-2-yl)-2-(1-(5,6,7,8-tetrahydroimidazo[1,5-a]pyrazine-7-carbonyl)piperidin-4-ylidene)acetonitrile], in that order: 11%, 8% and 98%.
For the compound `CN(C(=O)N1CCC(=C(C#N)c2ccc(Cl)cc2)CC1)C1CCOCC1` [Compound 69, 4-((4-chlorophenyl)(cyano)methylene)-N-methyl-N-(tetrahydro-2H-pyran-4-yl)piperidine-1-carboxamide], the values for the inhibition at 10 µM in assay [1] and in assay [2] were 16% and 10%, respectively. Besides, in assay [3], the inhibition at 0.5 µM amounted to 98%.
For `N#CC(=C1CCN(C(=O)N2CCC(O)CC2)CC1)c1n[nH]c2ccccc12` [Compound 70, 2-(1-(4-hydroxypiperidine-1-carbonyl)piperidin-4-ylidene)-2-(1H-indazol-3-yl)acetonitrile], in that order: 5%, 11% and 97%.

A word on the inhibition: it is the drop in the measured response relative to a control, in per cent.

Source of the values: patent US12637471B2, “Heterocyclic compounds, compositions, methods of preparation and uses thereof” (Organon R&D Finland Ltd, priority 2021, dated 2026).
